Molecules are shown by their SMILES. Where only a bound is given, the exact number is not on record here.

In this test the target is Non-receptor tyrosine-protein kinase TYK2 (Homo sapiens, UniProt P29597). The test is described as follows: Binding Assay: Binding constants for compounds of the present invention against the JH2 domain were determined by the following protocol for a KINOMEscan® assay (DiscoveRx). A fusion protein of a partial length construct of human TYK2 (JH2domain-pseudokinase) (amino acids G556 to D888 based on reference sequence NP_003322.3) and the DNA binding domain of NFkB was expressed in transiently transfected HEK293 cells. From these HEK 293 cells, extracts were prepared in M-PER extraction buffer (Pierce) in the presence of Protease Inhibitor Cocktail Complete (Roche) and Phosphatase Inhibitor Cocktail Set II (Merck) per manufacturers' instructions. The TYK2 (JH2domain-pseudokinase) fusion protein was labeled with a chimeric double-stranded DNA tag containing the NFkB binding site (5′-GGGAATTCCC-3′) fused to an amplicon for qPCR readout, which was added directly to the expression extract (the final concentration of DNA-tag in the binding reaction is 0.1 nM). It is filed as cell-based. A general note: Quantitative PCR measures a nucleic acid by following its amplification.
Sequence of Non-receptor tyrosine-protein kinase TYK2 (P29597 whole entry, the tested form may be a part): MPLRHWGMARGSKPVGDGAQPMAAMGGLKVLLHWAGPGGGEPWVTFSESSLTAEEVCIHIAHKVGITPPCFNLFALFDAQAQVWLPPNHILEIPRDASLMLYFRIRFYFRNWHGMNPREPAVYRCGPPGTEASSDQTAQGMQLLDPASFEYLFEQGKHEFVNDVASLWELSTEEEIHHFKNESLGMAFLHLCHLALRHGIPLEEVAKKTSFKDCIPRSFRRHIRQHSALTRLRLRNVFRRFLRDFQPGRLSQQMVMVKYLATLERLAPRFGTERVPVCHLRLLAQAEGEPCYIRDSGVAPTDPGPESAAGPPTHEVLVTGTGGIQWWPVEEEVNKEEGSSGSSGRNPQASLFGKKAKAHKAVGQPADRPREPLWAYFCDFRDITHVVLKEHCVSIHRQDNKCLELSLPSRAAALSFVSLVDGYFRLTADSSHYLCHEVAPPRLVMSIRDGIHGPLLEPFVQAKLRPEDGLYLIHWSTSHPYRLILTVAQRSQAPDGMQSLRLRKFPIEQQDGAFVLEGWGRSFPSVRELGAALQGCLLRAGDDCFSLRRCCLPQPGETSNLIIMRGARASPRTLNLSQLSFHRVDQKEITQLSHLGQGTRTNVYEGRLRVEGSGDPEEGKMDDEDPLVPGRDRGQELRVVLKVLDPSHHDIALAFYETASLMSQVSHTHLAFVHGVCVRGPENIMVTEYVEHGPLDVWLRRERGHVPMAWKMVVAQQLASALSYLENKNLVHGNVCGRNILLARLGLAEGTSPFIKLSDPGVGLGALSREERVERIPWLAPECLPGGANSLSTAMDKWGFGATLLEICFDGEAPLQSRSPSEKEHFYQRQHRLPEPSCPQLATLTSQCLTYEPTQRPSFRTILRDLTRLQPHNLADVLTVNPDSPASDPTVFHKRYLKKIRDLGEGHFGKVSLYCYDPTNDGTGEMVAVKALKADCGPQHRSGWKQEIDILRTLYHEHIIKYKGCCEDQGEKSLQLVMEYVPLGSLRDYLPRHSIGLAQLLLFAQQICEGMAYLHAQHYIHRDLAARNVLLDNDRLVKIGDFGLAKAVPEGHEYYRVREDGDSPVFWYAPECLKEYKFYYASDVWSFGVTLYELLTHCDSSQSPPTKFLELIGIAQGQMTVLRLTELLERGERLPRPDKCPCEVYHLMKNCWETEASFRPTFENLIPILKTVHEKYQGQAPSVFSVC

For the compound `Cc1nc2c(Nc3ccc(-c4cnn(C)c4C)cc3S(C)(=O)=O)cc(Nc3cccc(C#N)n3)nc2[nH]1`, the Kd (usually the free concentration of one partner at which half of the binding sites on the other are occupied at equilibrium, for simple one-to-one binding) is less than 0.1 nM.
`COCCNc1ccc(Nc2cc(Nc3ccccc3N(C)S(C)(=O)=O)c3nc(C)[nH]c3n2)nc1C#N`: the dissociation constant (Kd) was less than 0.1 nM.
For `COc1c(Nc2cc(Nc3ccc(C(C)(C)OC)c(C#N)n3)nc3[nH]c(C)nc23)cccc1-c1nnn(C)n1`, the Kd was greater than 10 nM.
For the compound `COc1ccccc1Nc1cc(Nc2ccc(N3CCC4(CCOCC4)CC3)cn2)nc2[nH]c(C)nc12`, the Kd was greater than 10 nM.
Regarding `Cn1cncc1-c1ccc(Nc2cc(NC(=O)[C@@H]3C[C@@H]3F)nc3[nH]c(C(F)F)nc23)c(S(C)(=O)=O)c1`, the Kd is less than 0.1 nM.
With `CN(c1cc(-c2cncn2C)ccc1Nc1cc(NC(=O)[C@@H]2C[C@@H]2F)nc2[nH]c(C(F)F)nc12)S(C)(=O)=O`, the Kd was less than 0.1 nM.
For the compound `Cc1c(-c2ccc(Nc3cc(NC(=O)C4CC4)nc4[nH]c(C(F)F)nc34)c(S(C)(=O)=O)c2)cnn1C`, the equilibrium dissociation constant (Kd) was less than 0.1 nM.
